Experimental data reported in publication PMC5531494, “Target specificity, in vivo pharmacokinetics, and efficacy of the putative STAT3 inhibitor LY5 in osteosarcoma, Ewing's sarcoma, and rhabdomyosarcoma” (PLoS ONE, 2017).
Where two headings read alike, the source gives them in different places.

Assays:
STAT4 = target: T1, STAT4 (Homo sapiens, UniProt Q14765); assay: Cytokine-induced STAT4 phosphorylation in SJSA cells, Western blot; assay type: cell-based; conditions: induced by IFN-γ, IFN-α, or IL-4
T1 construct: endogenous in cells; host or cells: SJSA
T1 sequence (Q14765 whole entry): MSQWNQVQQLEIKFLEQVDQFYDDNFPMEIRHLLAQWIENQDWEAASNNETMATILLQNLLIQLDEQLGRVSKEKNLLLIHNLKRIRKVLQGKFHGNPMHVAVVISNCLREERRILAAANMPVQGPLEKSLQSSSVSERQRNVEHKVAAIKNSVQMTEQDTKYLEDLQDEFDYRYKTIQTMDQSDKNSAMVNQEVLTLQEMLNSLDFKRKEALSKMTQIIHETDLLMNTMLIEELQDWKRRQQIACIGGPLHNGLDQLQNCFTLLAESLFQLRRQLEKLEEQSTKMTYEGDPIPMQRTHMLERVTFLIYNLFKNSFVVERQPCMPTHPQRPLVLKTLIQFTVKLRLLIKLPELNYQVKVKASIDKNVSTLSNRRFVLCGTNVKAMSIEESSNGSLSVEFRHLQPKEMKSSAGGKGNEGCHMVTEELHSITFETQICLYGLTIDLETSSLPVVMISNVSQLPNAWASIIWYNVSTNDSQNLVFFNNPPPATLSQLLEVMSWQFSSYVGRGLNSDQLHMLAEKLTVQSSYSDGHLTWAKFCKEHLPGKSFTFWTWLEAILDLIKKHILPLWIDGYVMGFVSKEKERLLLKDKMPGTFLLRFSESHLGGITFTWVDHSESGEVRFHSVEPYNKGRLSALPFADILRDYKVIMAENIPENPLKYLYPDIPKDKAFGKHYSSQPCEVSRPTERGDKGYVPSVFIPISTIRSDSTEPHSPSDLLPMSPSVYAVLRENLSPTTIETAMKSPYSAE
Protocol: (§1) Cell lysis, protein isolation and immunoblotting were performed as described previously. Twenty micrograms of protein were resolved using 4–12% Bis-Tris polyacrylamide gels. Gels were transferred to PVDF membranes and subjected to blocking and incubation with primary and secondary antibodies. The primary antibodies used in this study included: phospho-STAT3 (Tyr705, Cell Signaling, Boston, MA and Abcam, Cambridge, MA), total STAT3 (Cell Signaling and Abcam), phospho-STAT1 (Cell Signaling), total STAT1 (Cell Signaling), phospho-STAT2 (Cell Signaling), phospho-STAT4 (Cell Signaling), phospho-STAT6 (Cell Signaling), and GAPDH (Cell Signaling). Protein bands were detected using Western Lightning ® Plus Enhanced Chemiluminescence substrate (Perkin Elmer, Waltham, MA) and HyBlot CL ® Autoradiography film (Denville Scientific, Holliston, MA). The cytokines used in this study included: interferon gamma (IFN-γ, Cell Signaling), interferon alpha (IFN-α, Cell Signaling), interleukin-4 (IL-4, Cell Signaling), interleukin-6 (IL-6, Cell Signaling), and oncostatin M (OSM, Cell Signaling).
(§2) Fig 1 LY5 inhibits pSTAT3 in sarcoma cell lines. (A) The tumor cell lines RH30, EW8, and RD were treated with increasing concentrations of LY5 for 30 minutes. Cell lysates were collected for Western blotting of p-STAT3, total STAT3, and GAPDH. GAPDH was used as loading control. […]

[1] = target: T2, polo-like kinase 3 (PLK3) (Homo sapiens, UniProt Q9H4B4); assay: KINOMESCAN binding, PLK3; conditions: 5 μM LY5
T2 construct: purchased KINOMESCAN (www.kinomescan.com)
T2 sequence (Q9H4B4 whole entry): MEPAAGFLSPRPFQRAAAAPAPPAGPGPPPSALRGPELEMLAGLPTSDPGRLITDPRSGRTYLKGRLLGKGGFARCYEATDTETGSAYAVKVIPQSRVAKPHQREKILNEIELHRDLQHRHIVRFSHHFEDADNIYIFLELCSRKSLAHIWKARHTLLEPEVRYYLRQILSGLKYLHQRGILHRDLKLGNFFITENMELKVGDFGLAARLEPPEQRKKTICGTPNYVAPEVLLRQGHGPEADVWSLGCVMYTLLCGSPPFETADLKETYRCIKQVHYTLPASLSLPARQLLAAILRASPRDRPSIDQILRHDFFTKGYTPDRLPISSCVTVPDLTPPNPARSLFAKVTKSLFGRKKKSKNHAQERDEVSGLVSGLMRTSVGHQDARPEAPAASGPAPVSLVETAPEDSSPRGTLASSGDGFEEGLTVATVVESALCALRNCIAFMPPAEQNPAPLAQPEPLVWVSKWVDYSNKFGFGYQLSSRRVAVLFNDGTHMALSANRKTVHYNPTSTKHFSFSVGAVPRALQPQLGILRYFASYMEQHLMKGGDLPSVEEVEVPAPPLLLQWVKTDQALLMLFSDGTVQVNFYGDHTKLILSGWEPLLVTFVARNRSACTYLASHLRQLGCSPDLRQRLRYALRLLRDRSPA
Protocol: To determine the specificity of STAT blockade, we asked whether LY5 affected the phosphorylation of other family members including STAT1, STAT2, STAT4, and STAT6 [30–32]. […] To further define any potential off-target effects, we profiled the direct (steric) or indirect (allosteric) binding of LY5 to the binding sites of 96 human protein or lipid kinases (KINOMESCAN, www.kinomescan.com).
Supplementary file pone.0181885.s001.pdf: S1 Fig Kinomescan results for LY5. […] At 5 μM LY5 (B), only interaction with PLK3 was identified, mapped S-score (35) = 0.01. (PDF) Click here for additional data file.

Protein binding in mice = assay type: in vitro ADME
[2] = PK in normal beagle dogs, IV and oral gavage; assay type: in vivo; conditions: plasma; for bioavailability: dog, po, read-out: F (oral bioavailability)
Protocol: LY5 was evaluated in two normal purpose-bred beagle dogs (female 8.8 kg; male 11.2 kg) receiving a single dose of 1mg/kg LY5 IV then orally by gavage 7 days later to establish the PK profile and assess the spectrum of clinical toxicities associated with LY5 administration. The oral dosing was repeated in the fed and fasted state. The starting dose was determined based on allometric scaling from the maximal tolerated dose studies performed in mice. Dogs were washed out for 30 days, and then given a dose of 25 mg in a capsule orally, followed by a 50 mg capsule dose 14 days later. Full PK sampling was performed over 24 hours following each dose of LY5. The dogs received LY5 and were used for the PK analysis but were not euthanized upon conclusion of the study.
The liquid chromatography-mass spectrometry system utilized for these analyses consisted of a Dionex Ultimate 3000 RSLCnano High Performance Liquid Chromatography system and a Thermo Finnigan Quantum Ultras EMR mass spectrometer with an electrospray ionization source. Positive ionization mode was used for both LY5 and the internal standard, hesperetin. Plasma samples were collected and analyzed by the OSU James Comprehensive Cancer Center Pharmacoanalytical Shared Resource. Pharsight Phoenix WinNonlin software using non-compartmental analysis was used to generate PK parameters including maximum plasma concentration (Cmax), amount of time that drug is present at Cmax (Tmax), and total area under the curve (AUC). AUC all and AUC last were calculated by linear trapezoidal method of concentration-time curve up to the last measured point. AUC inf-obs was calculated by log-linear extrapolation of the terminal phase beyond the last collection time. Bioavailability (F) was calculated for IP and PO administration routes. Plasma stability and liver microsomal stability of LY5 were also assessed through this shared resource.

STAT3 = STAT3 (Homo sapiens, UniProt P40763); assay: Western blot of basal p-STAT3 (Tyr705) in sarcoma cell lines RH30, EW8, RD; assay type: cell-based; parameters: endogenous in cells; conditions: ES, OS and RMS cells, RH30, EW8, RD treated 30 minutes
Sequence of STAT3 (P40763 whole entry): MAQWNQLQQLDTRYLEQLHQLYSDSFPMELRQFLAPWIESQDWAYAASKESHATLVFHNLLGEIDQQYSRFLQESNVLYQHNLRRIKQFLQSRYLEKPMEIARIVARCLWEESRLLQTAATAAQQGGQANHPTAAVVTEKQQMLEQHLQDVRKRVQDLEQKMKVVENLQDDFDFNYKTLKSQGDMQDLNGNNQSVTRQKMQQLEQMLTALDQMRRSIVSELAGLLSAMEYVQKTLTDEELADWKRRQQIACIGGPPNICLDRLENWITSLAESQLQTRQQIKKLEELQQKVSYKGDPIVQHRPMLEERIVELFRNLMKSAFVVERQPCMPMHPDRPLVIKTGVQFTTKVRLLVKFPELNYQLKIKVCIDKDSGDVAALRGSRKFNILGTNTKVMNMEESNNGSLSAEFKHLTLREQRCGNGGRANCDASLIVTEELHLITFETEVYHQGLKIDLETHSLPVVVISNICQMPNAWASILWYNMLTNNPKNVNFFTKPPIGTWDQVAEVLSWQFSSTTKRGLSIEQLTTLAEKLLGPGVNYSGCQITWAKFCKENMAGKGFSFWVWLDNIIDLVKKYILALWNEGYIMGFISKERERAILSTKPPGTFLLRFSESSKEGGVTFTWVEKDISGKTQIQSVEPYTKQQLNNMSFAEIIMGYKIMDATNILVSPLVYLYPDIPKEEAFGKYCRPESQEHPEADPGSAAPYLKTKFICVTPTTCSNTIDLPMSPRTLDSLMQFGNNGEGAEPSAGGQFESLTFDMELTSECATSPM
Protocol: as §1, §2

[3] = female, Dog #2, PO fed, 1.28 mg/kg, dog vomited 10 min after dosing
[4] = female, Dog #2, PO w/ fast, 0.9 mg/kg
[5] = male, Dog #1, PO fed, 1.28 mg/kg
[6] = male, Dog #1, PO w/ fast, 0.9 mg/kg

NS(=O)(=O)c1cccc2c1C(=O)C=C(Nc1cccnc1)C2=O [LY5, 5,8-dioxo-6-(pyridin-3-ylamino)-5,8-dihydronaphthalene-1-sulfonamide]
phosphorylation of STAT4 (STAT4): did not inhibit | binding to PLK3 [1]: binding | drug protein-bound (Protein binding in mice): Approximately 90% | bioavailability ([2]; female, 0.9 mg/kg, Dog #2, PO w/ fast (fasted female dog)): 44.3% | bioavailability ([2]; female, 1 mg/kg, Dog #2, PO w/ fast (fasted female dog)): 44% | bioavailability ([2]; female, 1.28 mg/kg, Dog #2, PO fed, dog vomited 10 min after dosing): 5% | AUC ([2]; female, Dog #2, IV, 0.97 mg/kg): 3.92 µM·h | Cmax ([2]; female, Dog #2, IV, 0.97 mg/kg): 3220 nM | AUC [2, 3]: 0.258 µM·h | Cmax [2, 3]: 60.4 nM | AUC [2, 4]: 1.61 µM·h | Cmax [2, 4]: 500 nM | bioavailability ([2]; male, 0.9 mg/kg, Dog #1, PO w/ fast (fasted male dog)): 51.6% | bioavailability ([2]; male, 1 mg/kg, Dog #1, PO fed): 14% | bioavailability ([2]; male, 1 mg/kg, Dog #1, PO w/ fast (fasted male dog)): 52% | bioavailability ([2]; male, 1.28 mg/kg, Dog #1, PO fed): 13.7% | AUC ([2]; male, Dog #1, IV, 0.97 mg/kg): 5.1 µM·h | Cmax ([2]; male, Dog #1, IV, 0.97 mg/kg): 5590 nM | AUC [2, 5]: 0.924 µM·h | Cmax [2, 5]: 206 nM | AUC [2, 6]: 2.44 µM·h | Cmax [2, 6]: 1280 nM | basal STAT3 phosphorylation at Tyr705 (STAT3): inhibited basal STAT3 phosphorylation
